Experimental data published in patent publication US12378220B2, “WNT signaling pathway inhibitors for treatments of disease” (University of Maryland, Baltimore, priority 2016, dated 2025).
Where two headings read alike, the source gives them in different places. Each block holds one compound with its values, some of them ahead of it.

System: Wnt/β-catenin pathway
Experiment: dual-luciferase TCF/LEF reporter assay, LiCl-activated, HEK293 cells
Format: cell-based
Method: Lithium chloride (LiCl), which has been previously established as an activator of the Wnt/β-catenin pathway through its direct and indirect effects on GSK3β was used for pathway activation. The inhibition of the Wnt/β-catenin pathway by a compound may be determined after its incubation with cells for 24 hours.
The assay provided herein is a dual-luciferase assay to measure Wnt/β-catenin pathway activation using a TCF/LEF responsive reporter construct similar to that described previously (Thorne et al., 2010).

[1] = Homo sapiens, HEK293, Table 6, read-out: IC50 (nM) or remaining activity at 1 μM: IC50
[2] = Homo sapiens, HEK293, 24 h, At 1 μM concentration, remaining Wnt signaling activity, read-out: RLU % (Relative Light Units in reporter gene assays)
[3] = Homo sapiens, HEK293, Table 3, values in nM, read-out: IC50
[4] = Homo sapiens, HEK293, Table 5, read-out: IC50 (nM) or remaining activity at 1 μM: IC50
[5] = Homo sapiens, HEK293, Table 4, @ 1 μM, read-out: IC50 (nM) or remaining activity at 1 μM: remaining activity
[6] = Homo sapiens, HEK293, Table 3, values in μM, read-out: IC50

Compound: Cc1c(C(=O)Nc2ccc3ccccc3n2)nnn1-c1cccc(Cl)c1 [Compound 44, 1-(3-Chlorophenyl)-5-methyl-N-(quinolin-2-yl)-1H-1,2,3-triazole-4-carboxamide]
IC50 [1]: 731 nM

Compound: CCc1c(C(=O)Nc2ccc3ccccc3n2)nnn1-c1ccccc1F [Compound 45, 5-Ethyl-1-(2-fluorophenyl)-N-(quinolin-2-yl)-1H-1,2,3-triazole-4-carboxamide]
IC50 (Table 7, read-out: IC50): 47 nM

Compound: Cc1c(C(=O)Nc2ccc3ccccc3n2)nnn1-c1ccccc1C#N [Compound 34, 1-(2-Cyanophenyl)-5-methyl-N-(quinolin-2-yl)-1H-1,2,3-triazole-4-carboxamide]
IC50 [1]: 76 nM

Compound: Cc1ccc(-n2nnc(C(=O)Nc3ccccn3)c2C)cc1 [Compound 20, 5-Methyl-N-(pyridin-2-yl)-1-(p-tolyl)-1H-1,2,3-triazole-4-carboxamide]
activity at 1 µM (Homo sapiens, HEK293, Table 5, @ 1 μM, read-out: IC50 (nM) or remaining activity at 1 μM: remaining activity): 100%

Compound: Cc1ccc(-n2nnc(C(=O)Nc3ccc4c(=O)cc(C)oc4c3)c2C)cc1 [Compound 26, 5-Methyl-N-(2-methyl-4-oxo-4H-chromen-7-yl)-1-(p-tolyl)-1H-1,2,3-triazole-4-carboxamide]
IC50 [4]: > 1000 nM

Compound: Cc1c(C(=O)Nc2ccc3ccccc3n2)nnn1-c1ccccc1F [Compound 33, 1-(2-Fluorophenyl)-5-methyl-N-(quinolin-2-yl)-1H-1,2,3-triazole-4-carboxamide]
IC50 [1]: 6.5 nM

Compound: CC(=O)c1ccccc1-n1nnc(C(=O)Nc2ccc3ccccc3n2)c1C [Compound 39, 1-(2-Acetylphenyl)-5-methyl-N-(quinolin-2-yl)-1H-1,2,3-triazole-4-carboxamide]
IC50 [1]: 814 nM

Compound: Cc1ccccc1-n1nnc(C(=O)Nc2ccc3ccccc3n2)c1C [Compound 28, 5-Methyl-N-(quinolin-2-yl)-1-(o-tolyl)-1H-1,2,3-triazole-4-carboxamide]
IC50 [1]: 6.3 nM

Compound: Cc1ccc(-n2nnc(C(=O)NCc3ccccn3)c2C)cc1 [YW1121, 5-Methyl-N-(pyridin-2-ylmethyl)-1-(p-tolyl)-1H-1,2,3-triazole-4-carboxamide]
activity at 1 µM [2]: 92.1%

Compound: Cc1ccc(-n2c(C)cc(C(=O)Nc3ccccn3)c2C)cc1 [Compound 14, 2,5-dimethyl-N-(pyridin-2-yl)-1-(p-tolyl)-1H-pyrrole-3-carboxamide]
activity at 1 µM [5]: 79.8%

Compound: Cc1ccc(-n2c(C)cc(C(=O)Nc3nc(-c4ccccc4)cs3)c2C)cc1 [Compound 16, 2,5-dimethyl-N-(4-phenylthiazol-2-yl)-1-(p-tolyl)-1H-pyrrole-3-carboxamide]
IC50 (Homo sapiens, HEK293, Table 4, LiCl-mediated WNT signaling, read-out: IC50 (nM) or remaining activity at 1 μM: IC50): 379 nM

Compound: Cc1ccc(-n2c(C)cc(C(=O)Nc3ccccn3)c2C)cc1 [YW1109, 2,5-Dimethyl-N-(pyridin-2-yl)-1-(p-tolyl)-1H-pyrrole-3-carboxamide]
activity at 1 µM [2]: 79.8%

Compound: Cc1ccc(-n2nnc(C(=O)Nc3nc(-c4ccccc4)c(-c4ccccc4)s3)c2C)cc1 [Compound 22, N-(4,5-diphenylthiazol-2-yl)-5-methyl-1-(p-tolyl)-1H-1,2,3-triazole-4-carboxamide]
IC50 [4]: 1000 nM

Compound: Cc1c(C(=O)Nc2ccc3ccccc3n2)nnn1-c1ccccc1-c1ccccc1 [Compound 38, 1-([1,1′-biphenyl]-2-yl)-5-methyl-N-(quinolin-2-yl)-1H-1,2,3-triazole-4-carboxamide]
IC50 [1]: 52000 nM

Compound: Cc1ccc(-n2nnc(C(=O)Nc3cccc(C)n3)c2C)cc1 [Compound 21, 5-Methyl-N-(6-methylpyridin-2-yl)-1-(p-tolyl)-1H-1,2,3-triazole-4-carboxamide]
IC50 [4]: 273 nM

Compound: Cc1ccc(-n2nnc(C(=O)Nc3ccc4c(=O)cc(C)oc4c3)c2C)cc1 [YW1123, 5-Methyl-N-(2-methyl-4-oxo-4H-chromen-7-yl)-1-(p-tolyl)-1H-1,2,3-triazole-4-carboxamide]
activity at 1 µM [2]: 87.6%

Compound: Cc1ccc(-n2nnc(C(=O)Nc3nc(-c4ccccc4)c(-c4ccccc4)s3)c2C)cc1 [YW1125, N-(4,5-diphenylthiazol-2-yl)-5-methyl-1-(p-tolyl)-1H-1,2,3-triazole-4-carboxamide]
activity at 1 µM [2]: 55.1%

Compound: Cc1ccc(-n2c(C)cc(C(=O)Nc3cnccn3)c2C)cc1 [YW1117-2, 2,5-Dimethyl-N-(pyrazin-2-yl)-1-(p-tolyl)-1H-pyrrole-3-carboxamide]
activity at 1 µM [2]: 113%

Compound: Cc1c(C(=O)Nc2ccc3ccccc3n2)nnn1-c1ccccc1N1CCOCC1 [YW1155, 5-Methyl-1-(2-morpholinophenyl)-N-(quinolin-2-yl)-1H-1,2,3-triazole-4-carboxamide]
activity at 1 µM [2]: 99.8%

Compound: Cc1ccccc1-n1nnc(C(=O)Nc2nc(-c3ccccc3)cs2)c1C [Compound 30, 5-Methyl-N-(4-phenylthiazol-2-yl)-1-(o-tolyl)-1H-1,2,3-triazole-4-carboxamide]
IC50 (Table 7, read-out: IC50): 22000 nM

Compound: COc1ccccc1-n1nnc(C(=O)Nc2ccc3ccccc3n2)c1C [Compound 35, 1-(2-Methoxyphenyl)-5-methyl-N-(quinolin-2-yl)-1H-1,2,3-triazole-4-carboxamide]
IC50 [1]: 88 nM

Compound: Cc1ccc(-n2nnc(C(=O)Nc3cc(C)no3)c2C)cc1 [Compound 24, 5-Methyl-N-(3-methylisoxazol-5-yl)-1-(p-tolyl)-1H-1,2,3-triazole-4-carboxamide]
IC50 [4]: 48000 nM

Compound: Cc1ccc(-n2c(C)cc(C(=O)Nc3cnccn3)c2C)cc1 [Compound 15, 2,5-Dimethyl-N-(pyrazin-2-yl)-1-(p-tolyl)-1H-pyrrole-3-carboxamide]
activity at 1 µM [5]: 112%

Compound: Cc1ccc(-n2nnc(C(=O)Nc3ccc4ccccc4n3)c2C)c(C)c1 [Compound 32, 1-(2,4-Dimethylphenyl)-5-methyl-N-(quinolin-2-yl)-1H-1,2,3-triazole-4-carboxamide]
IC50 [1]: 130 nM

Compound: CC(C)c1c(C(=O)Nc2ccc3ccccc3n2)nnn1-c1ccccc1F [Compound 46, 1-(2-Fluorophenyl)-5-isopropyl-N-(quinolin-2-yl)-1H-1,2,3-triazole-4-carboxamide]
IC50 (Table 7, read-out: IC50): 177 nM

Compound: Cc1ccc(-n2nnc(C(=O)Nc3ccc4ccccc4n3)c2C)cc1 [YW1127, 5-Methyl-N-(quinolin-2-yl)-1-(p-tolyl)-1H-1,2,3-triazole-4-carboxamide]
activity at 1 µM [2]: 56.4%

Compound: Cc1ccccc1-n1nnc(C(=O)Nc2nc3ccccc3s2)c1C [Compound 29, N-(benzo[d]thiazol-2-yl)-5-methyl-1-(o-tolyl)-1H-1,2,3-triazole-4-carboxamide]
IC50 (Table 7, read-out: IC50): 34 nM

Compound: Cc1ccc(-n2c(C)cc(C(=O)NCc3ccccc3)c2C)cc1 [Compound 17, N-benzyl-2,5-dimethyl-1-(p-tolyl)-1H-pyrrole-3-carboxamide]
activity at 1 µM [5]: 93%

Compound: Cc1c(C(=O)Nc2ccc3ccccc3n2)nnn1-c1cccc2ccccc12 [Compound 43, 5-Methyl-1-(naphthalen-1-yl)-N-(quinolin-2-yl)-1H-1,2,3-triazole-4-carboxamide]
IC50 [1]: 4000 nM

Compound: Cc1ccccc1-n1nnc(C(=O)Nc2ccc3ccccc3c2)c1C [Compound 31, 5-Methyl-N-(naphthalen-2-yl)-1-(o-tolyl)-1H-1,2,3-triazole-4-carboxamide]
IC50 (Table 7, read-out: IC50): 471 nM

Now from value to compound, other results behind:

IC50 [3]: 34 nM
Compound: Cc1ccccc1-n1nnc(C(=O)Nc2nc3ccccc3s2)c1C [YW1132, N-(benzo[d]thiazol-2-yl)-5-methyl-1-(o-tolyl)-1H-1,2,3-triazole-4-carboxamide]
activity at 1 µM [2]: 4.9%

IC50 [3]: 76 nM
Compound: Cc1c(C(=O)Nc2ccc3ccccc3n2)nnn1-c1ccccc1C#N [YW1157, 1-(2-Cyanophenyl)-5-methyl-N-(quinolin-2-yl)-1H-1,2,3-triazole-4-carboxamide]
activity at 1 µM [2]: 6.5%

IC50 [3]: 273 nM
Compound: Cc1ccc(-n2nnc(C(=O)Nc3cccc(C)n3)c2C)cc1 [YW1134, 5-Methyl-N-(6-methylpyridin-2-yl)-1-(p-tolyl)-1H-1,2,3-triazole-4-carboxamide]
activity at 1 µM [2]: 79.5%

IC50 [3]: 379 nM
Compound: Cc1ccc(-n2c(C)cc(C(=O)Nc3nc(-c4ccccc4)cs3)c2C)cc1 [YW1114, 2,5-Dimethyl-N-(4-phenylthiazol-2-yl)-1-(p-tolyl)-1H-pyrrole-3-carboxamide]
activity at 1 µM [2]: 34.6%

IC50 [3]: 814 nM
Compound: CC(=O)c1ccccc1-n1nnc(C(=O)Nc2ccc3ccccc3n2)c1C [YW1181, 1-(2-Acetylphenyl)-5-methyl-N-(quinolin-2-yl)-1H-1,2,3-triazole-4-carboxamide]
activity at 1 µM [2]: 18.1%

IC50 [6]: 22000 nM
Compound: Cc1ccccc1-n1nnc(C(=O)Nc2nc(-c3ccccc3)cs2)c1C [YW1183, 5-Methyl-N-(4-phenylthiazol-2-yl)-1-(o-tolyl)-1H-1,2,3-triazole-4-carboxamide]
activity at 1 µM [2]: 90.8%

IC50 [3]: 6.5 nM
Compound: Cc1c(C(=O)Nc2ccc3ccccc3n2)nnn1-c1ccccc1F [YW1159, 1-(2-Fluorophenyl)-5-methyl-N-(quinolin-2-yl)-1H-1,2,3-triazole-4-carboxamide]
activity at 1 µM [2]: 1.4%

IC50 [6]: 52000 nM
Compound: Cc1c(C(=O)Nc2ccc3ccccc3n2)nnn1-c1ccccc1-c1ccccc1 [YW1180, 1-([1,1′-biphenyl]-2-yl)-5-methyl-N-(quinolin-2-yl)-1H-1,2,3-triazole-4-carboxamide]
activity at 1 µM [2]: 104%

IC50 [3]: 47 nM
Compound: CCc1c(C(=O)Nc2ccc3ccccc3n2)nnn1-c1ccccc1F [YW2018, 5-Ethyl-1-(2-fluorophenyl)-N-(quinolin-2-yl)-1H-1,2,3-triazole-4-carboxamide]
activity at 1 µM [2]: 2.3%

IC50 [6]: 48000 nM
Compound: Cc1ccc(-n2nnc(C(=O)Nc3cc(C)no3)c2C)cc1 [YW1124, 5-Methyl-N-(3-methylisoxazol-5-yl)-1-(p-tolyl)-1H-1,2,3-triazole-4-carboxamide]
activity at 1 µM [2]: 121%
